Laboratory results reported in US12077636B2 (NISSAN CHEMICAL CORPORATION, priority 2013, dated 2024).

Experiment: Dissolution rate into the solvent
Type: physicochemical
Settings: compared with α-type:β-type in a range of 98:2 to 85:15

dissolution rate for dissolution into the solvent: slower
SMILES: O=c1n(CC2CO2)c(=O)n(CC2CO2)c(=O)n1CC1CO1 (stereo not shown) [Tris-(2,3-epoxypropyl)-isocyanurate]
